Results on 8 molecules are retold here after US11168073B2, “3,3-difluoroallylamines or salts thereof and pharmaceutical compositions comprising the same” (YUHAN CORPORATION, priority 2018, dated 2021).

Common to all, as to format: biochemical
Assay [1] has as its target T1, recombinant human MAO-A (monoamine oxidase-A) (Homo sapiens, UniProt P21397).
T1 construct: purchased Sigma-Aldrich
T1 sequence (P21397 1-527): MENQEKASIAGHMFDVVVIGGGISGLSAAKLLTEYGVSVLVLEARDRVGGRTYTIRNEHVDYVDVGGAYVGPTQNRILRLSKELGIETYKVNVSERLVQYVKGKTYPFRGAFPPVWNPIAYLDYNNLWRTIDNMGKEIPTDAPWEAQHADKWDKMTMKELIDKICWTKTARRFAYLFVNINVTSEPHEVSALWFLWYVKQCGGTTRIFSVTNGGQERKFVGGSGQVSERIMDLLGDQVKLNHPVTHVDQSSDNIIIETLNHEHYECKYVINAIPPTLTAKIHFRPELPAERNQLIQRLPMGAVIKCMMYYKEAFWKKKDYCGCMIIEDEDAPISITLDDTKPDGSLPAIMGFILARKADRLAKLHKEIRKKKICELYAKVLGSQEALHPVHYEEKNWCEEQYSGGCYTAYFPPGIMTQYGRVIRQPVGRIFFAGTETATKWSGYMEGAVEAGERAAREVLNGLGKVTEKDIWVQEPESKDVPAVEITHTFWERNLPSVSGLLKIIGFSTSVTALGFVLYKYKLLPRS
Nature of the assay: Activity evaluation on recombinant human MAO-A (Amplex Red/HRP-coupled assay, 0.5 mM tyramine substrate). The following applies: read-out: Inhibitory Activity (IC50, nM) MAO-A. The protocol: (§1) The compounds according to the present technology were evaluated in terms of activity on recombinant human VAP-1 (R&D systems) by measuring the level of hydrogen peroxide in horseradish peroxidase (HRP)-coupled reaction using Amplex Red Hydrogen Peroxide Assay Kit (Molecular Probes, Invitrogen, USA). The experiment was carried out at room temperature using benzylamine as a substrate. In the HRP-coupled reaction, hydrogen peroxide oxidation of 10-acetyl-3,7-dihydroxyphenoxazine (Amplex Red reagent) produces resorufin, which is a highly fluorescent compound. Briefly, the test compound was dissolved in dimethyl sulfoxide (DMSO) at a concentration of 20 mM. The dose-response assessment was made by 1:3 serial dilution in DMSO, thereby creating a 8 point curve. The concentration of the upper part was controlled according to the efficacy of the compounds, followed by the dilution with a reaction buffer solution to obtain a final DMSO concentration of less than 1%. To each well of a 96 black well plate, human VAP-1 purified in 50 mM sodium phosphate buffer solution (pH7.4) was added. The test compounds dissolved in DMSO were incubated with the human VAP-1 enzymes at 37° C. for 30 minutes. After 30-minute incubation, each well was added with a reaction mixture containing 200 uM Amplex Red reagent prepared from 50 mM sodium phosphate buffer solution (pH 7.4), 1 mM benzylamine, and 1 U/mL HRP. Fluorescence intensity was measured at several time points during 1-2 hours using a microplate reader (Flexstation3, Molecular Devices) under the wavelength condition exciting at 544 nm and reading the emission at 590 nm. The inhibitory effect of the compounds was measured as a decrease (%) in the signal rate as compared to the control group without any inhibitor (only diluted DMSO). Data was fixed to a logistic model with four variables and IC50 value was calculated using GraphPad Prism program.
(§2) In addition, the compounds according to the present technology were evaluated in terms of activity on a recombinant human MAO-A (monoamine oxidase-A, Sigma-Aldrich) and a recombinant human MAO-B (monoamine oxidase-B, Sigma-Aldrich) by using as substrates, 0.5 mM tyramine and 1 mM benzylamine, respectively, with a method similar to the activity evaluation method for recombinant human VAP-1. The compounds according to the present technology were also evaluated in terms of activity on a recombinant human DAO (diamine oxidase, R&D systems) by using as a substrate 1 mM putrescine with a method similar to the activity evaluation method for recombinant human VAP-1.

Assay [2] has as its target T2, recombinant human DAO (diamine oxidase) (Homo sapiens, UniProt P19801).
T2 construct: purchased R&D systems
T2 sequence (P19801 20-751): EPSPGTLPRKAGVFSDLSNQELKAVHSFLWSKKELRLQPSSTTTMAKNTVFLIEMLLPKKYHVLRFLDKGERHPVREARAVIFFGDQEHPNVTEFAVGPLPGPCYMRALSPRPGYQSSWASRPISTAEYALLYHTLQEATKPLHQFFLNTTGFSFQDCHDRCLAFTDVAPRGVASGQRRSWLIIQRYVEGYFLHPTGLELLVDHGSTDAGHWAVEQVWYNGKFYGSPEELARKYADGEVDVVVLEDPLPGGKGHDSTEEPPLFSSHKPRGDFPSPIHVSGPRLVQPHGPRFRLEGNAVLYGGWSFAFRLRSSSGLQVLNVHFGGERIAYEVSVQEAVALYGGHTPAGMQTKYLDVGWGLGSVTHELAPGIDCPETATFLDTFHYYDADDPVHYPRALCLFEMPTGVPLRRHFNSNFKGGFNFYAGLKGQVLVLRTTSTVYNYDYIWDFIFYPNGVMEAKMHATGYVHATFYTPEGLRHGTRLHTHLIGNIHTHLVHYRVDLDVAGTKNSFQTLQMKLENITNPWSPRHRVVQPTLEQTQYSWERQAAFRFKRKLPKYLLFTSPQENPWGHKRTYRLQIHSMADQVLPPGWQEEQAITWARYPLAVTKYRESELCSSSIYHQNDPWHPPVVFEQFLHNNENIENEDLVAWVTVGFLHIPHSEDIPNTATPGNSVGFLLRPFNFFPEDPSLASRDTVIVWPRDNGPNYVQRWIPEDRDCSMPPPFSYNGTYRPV
Put plainly: Activity evaluation on recombinant human DAO (Amplex Red/HRP-coupled assay, 1 mM putrescine substrate). The following applies: read-out: Inhibitory Activity (IC50, nM) DAO. The procedure:
as §1, §2

Assay [3] concerns the target T3, recombinant human MAO-B (monoamine oxidase-B) (Homo sapiens, UniProt P27338).
T3 construct: purchased Sigma-Aldrich
T3 sequence (P27338 1-520): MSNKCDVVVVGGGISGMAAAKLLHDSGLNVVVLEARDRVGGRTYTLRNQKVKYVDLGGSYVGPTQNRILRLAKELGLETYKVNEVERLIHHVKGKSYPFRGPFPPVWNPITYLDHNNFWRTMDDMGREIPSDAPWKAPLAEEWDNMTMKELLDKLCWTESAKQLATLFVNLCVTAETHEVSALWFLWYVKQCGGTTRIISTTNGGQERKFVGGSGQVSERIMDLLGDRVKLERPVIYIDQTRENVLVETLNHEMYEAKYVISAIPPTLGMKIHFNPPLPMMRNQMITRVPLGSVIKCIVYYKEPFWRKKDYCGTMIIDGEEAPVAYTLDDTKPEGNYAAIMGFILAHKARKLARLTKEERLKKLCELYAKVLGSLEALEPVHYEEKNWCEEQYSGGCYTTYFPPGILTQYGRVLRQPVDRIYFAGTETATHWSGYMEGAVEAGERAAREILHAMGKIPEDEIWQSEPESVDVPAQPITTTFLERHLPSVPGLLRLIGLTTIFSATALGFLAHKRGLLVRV
Put plainly: Activity evaluation on recombinant human MAO-B (Amplex Red/HRP-coupled assay, 1 mM benzylamine substrate). Particulars: read-out: Inhibitory Activity (IC50, nM) MAO-B. The protocol:
as §1, §2

For another assay, the target named is T4, recombinant human VAP-1 (Homo sapiens, UniProt Q16853).
T4 construct: purchased R&D systems
T4 sequence (Q16853 1-763): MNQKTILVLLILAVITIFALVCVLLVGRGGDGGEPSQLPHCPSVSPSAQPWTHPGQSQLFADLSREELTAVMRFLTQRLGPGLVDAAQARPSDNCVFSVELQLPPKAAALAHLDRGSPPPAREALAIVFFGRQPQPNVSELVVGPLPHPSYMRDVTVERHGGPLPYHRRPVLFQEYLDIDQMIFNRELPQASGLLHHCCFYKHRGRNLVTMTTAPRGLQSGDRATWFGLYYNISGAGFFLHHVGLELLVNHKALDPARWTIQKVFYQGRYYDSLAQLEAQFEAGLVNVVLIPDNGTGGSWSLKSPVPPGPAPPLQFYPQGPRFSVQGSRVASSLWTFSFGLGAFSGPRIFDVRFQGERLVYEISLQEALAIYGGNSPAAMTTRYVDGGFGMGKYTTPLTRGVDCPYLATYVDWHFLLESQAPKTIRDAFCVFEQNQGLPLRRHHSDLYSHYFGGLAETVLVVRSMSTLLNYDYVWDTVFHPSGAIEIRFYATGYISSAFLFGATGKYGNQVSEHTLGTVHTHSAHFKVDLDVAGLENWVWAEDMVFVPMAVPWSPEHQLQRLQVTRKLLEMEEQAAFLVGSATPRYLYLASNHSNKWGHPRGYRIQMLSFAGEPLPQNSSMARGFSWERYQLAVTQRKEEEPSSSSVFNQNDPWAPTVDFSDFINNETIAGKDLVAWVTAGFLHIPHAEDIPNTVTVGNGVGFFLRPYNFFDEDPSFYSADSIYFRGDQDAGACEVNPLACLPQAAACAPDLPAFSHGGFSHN
Put plainly: Activity evaluation on recombinant human VAP-1 (Amplex Red/HRP-coupled hydrogen peroxide assay, benzylamine substrate). The following applies: read-out: Inhibitory Activity (IC50, nM) human VAP-1. The procedure:
as §1

The mark [4] stands for this setting: recombinant human VAP-1, benzylamine substrate.
Setting [5] is: recombinant human VAP-1, 30 min preincubation at 37° C., 1 mM benzylamine.

Where a name gives a salt, the structure may show the parent alone. Read-outs that look alike come from different tables or passages of the source.

As usually defined, the IC50 is the concentration that gives 50% inhibition.

Regarding `Cc1cc(-c2ccc3c(c2)OCCN3C)cnc1-n1cnn(CC(CN)=C(F)F)c1=O` [Example 223, 2-[2-(aminomethyl)-3,3-difluoro-allyl]-4-[3-methyl-5-(4-methyl-2,3-dihydro-1,4-benzoxazin-7-yl)-2-pyridyl]-1,2,4-triazol-3-one Trifluoroacetate], the IC50 was greater than 10000 nM in assay [1] (0.5 mM tyramine substrate), 37000 nM in assay [2] (1 mM putrescine substrate), 38000 nM in assay [3] (1 mM benzylamine substrate) and 1.5 nM at recombinant human VAP-1 (setting [4]).

`NCC(Cn1ncn(Cc2ccc(-c3ccc(C(=O)N4CCOCC4)cc3)s2)c1=O)=C(F)F` [Example 109, 2-[2-(aminomethyl)-3,3-difluoro-allyl]-4-[[5-(4-morpholine-4-carbonyl)phenyl]-2-thienyl]methyl]-1,2,4-triazol-3-one trifluoroacetate]: the IC50 in assay [1] (0.5 mM tyramine) is greater than 100000 nM; in assay [2] (1 mM putrescine) it was 84000 nM; in assay [3] (1 mM benzylamine) it was greater than 100000 nM; on recombinant human VAP-1 (setting [5]), 1.4 nM.

With `NCC(Cn1ncn(-c2ccc(Br)cc2F)c1=O)=C(F)F` [Example 5, 2-[2-(aminomethyl)-3,3-difluoro-allyl]-4-(4-bromo-2-fluoro-phenyl)-1,2,4-triazol-3-one Trifluoroacetate], the IC50 is greater than 100000 nM in assay [1] (0.5 mM tyramine), 67000 nM in assay [2] (1 mM putrescine), 4900 nM in assay [3] (1 mM benzylamine) and 2.5 nM at recombinant human VAP-1 (setting [5]).

For the molecule `NCC(Cn1ncn(Cc2ccc(C#Cc3cnc4c(c3)OCCN4)s2)c1=O)=C(F)F` [Example 167, 2-[2-(aminomethyl)-3,3-difluoro-allyl]-4-[[5-[2-(3,4-dihydro-2H-pyrido[3,2-b][1,4]oxazin-7-yl)ethynyl]-2-thienyl]methyl]-1,2,4-triazol-3-one Ditrifluoroacetate], the IC50 is greater than 100000 nM in assay [1] (0.5 mM tyramine), greater than 10000 nM in assay [2] (1 mM putrescine), 41000 nM in assay [3] (1 mM benzylamine) and 2.1 nM on recombinant human VAP-1 (setting [5]).

With `CN1C(=O)CCc2cc(-c3ccc4cc(Cn5cnn(CC(CN)=C(F)F)c5=O)sc4c3)ccc21` [Example 203, 6-[2-[[1-[2-(aminomethyl)-3,3-difluoro-allyl]-5-oxo-1,2,4-triazol-4-yl]methyl]benzothiophen-6-yl]-1-methyl-3,4-dihydroquinolin-2-one Trifluoroacetate], the IC50 in assay [1] (0.5 mM tyramine substrate) was greater than 100000 nM; in assay [2] (1 mM putrescine substrate), 4000 nM; in assay [3] (1 mM benzylamine substrate), 780 nM; on recombinant human VAP-1 (setting [4]) it was 1.5 nM.

As to `Cc1cc(-n2cnn(CC(CN)=C(F)F)c2=O)cnc1-c1ccc2c(c1)OCO2` [Example 79, 2-[2-(aminomethyl)-3,3-difluoro-allyl]-4-[6-(1,3-benzodioxol-5-yl)-5-methyl-3-pyridyl]-1,2,4-triazol-3-one Trifluoroacetate], the IC50 in assay [1] (0.5 mM tyramine) was greater than 100000 nM; in assay [2] (1 mM putrescine) it was 200 nM; in assay [3] (1 mM benzylamine) it was 910 nM; on recombinant human VAP-1 (setting [5]) it was 0.9 nM.

Take `CCn1cc(-c2cccc(-n3cnn(CC(CN)=C(F)F)c3=O)n2)cn1` [Example 53, 2-[2-(aminomethyl)-3,3-difluoro-allyl]-4-[6-(1-ethylpyrazol-4-yl)-2-pyridyl]-1,2,4-triazol-3-one Trifluoroacetate]: the IC50 in assay [1] (0.5 mM tyramine) was greater than 100000 nM; in assay [2] (1 mM putrescine) it was 1710 nM; in assay [3] (1 mM benzylamine) it was greater than 100000 nM; at recombinant human VAP-1 (setting [5]) it was 1.3 nM.

In the case of `NCC(Cn1ncn(-c2ccc(-c3ccc4c(c3)OCO4)c(F)c2)c1=O)=C(F)F` [Example 28, 2-[2-(aminomethyl)-3,3-difluoro-allyl]-4-[4-(1,3-benzodioxol-5-yl)-3-fluoro-phenyl]-1,2,4-triazol-3-one Trifluoroacetate], the IC50 was greater than 100000 nM in assay [1] (0.5 mM tyramine), 1600 nM in assay [2] (1 mM putrescine), 85 nM in assay [3] (1 mM benzylamine) and 1.2 nM at recombinant human VAP-1 (setting [5]).
